The subject of assay [1] is Bacillus subtilis A.T.C.C. 6633. As to the kind of experiment: standard disc plate microbiological assay. The settings on record: one microgram of the standard; Difco Antibiotic Medium No. 5. It counts as cell-based. From the text:
The assay is a standard disc plate assay using Difco Antibiotic Medium No. 5 and Bacillus subtilis A.T.C.C. 6633 as the test organism. The physical conditions of the test are substantially those described for neomycin (Grove and Randall), Assay Methods of Antibiotics published by Medical Encyclopedia Incorporated (1955). The assay is run against a standard preparation of Antibiotic G-418 having a defined potency of 1000 mcg/mg. […] The standard antibiotic sulfate salt assays about 750 mcg/mg. against the standard antibiotic base.

Another assay deals with Escherichia coli 894. In words: In Vitro Antibacterial Activity (Table IV). It counts as cell-based. The conditions noted are these: E. coli 894, Tryptose Phosphate Broth pH 7.2 - 7.5, read-out: MIC (Minimum Inhibitory Concentration). From the text:
(§1) In Table IV and Table V are set forth the in vitro antibacterial spectrum of Antibiotic G-418 against a variety of gram-positive and gram-negative bacteria using standard art recognized methods.
(§2) *Minimum Inhibitory Concentration -- Medium: Tryptose Phosphate Broth pH

Assay [2] concerns Pseudomonas aeruginosa 37. As to the kind of experiment: In Vitro Antibacterial Activity (Table IV). In kind it is cell-based. The settings on record: P. aeruginosa 37, Tryptose Phosphate Broth pH 7.2 - 7.5, read-out: MIC (Minimum Inhibitory Concentration).
Excerpt: as §1, §2

Assay [3] concerns Staphylococcus aureus Gray. In words: In Vitro Antibacterial Activity (Table IV). It counts as cell-based. The conditions noted are these: S. aureus Gray, Tryptose Phosphate Broth pH 7.2 - 7.5, read-out: MIC (Minimum Inhibitory Concentration).
Excerpt: as §1, §2

For assay [4], the system named is Staphylococcus aureus Wood. In words: In Vitro Antibacterial Activity (Table IV). It counts as cell-based. The settings on record: S. aureus Wood, Tryptose Phosphate Broth pH 7.2 - 7.5, read-out: MIC (Minimum Inhibitory Concentration).
Excerpt: as §1, §2

The test system of the next assay is Streptococcus sp. C. As to the kind of experiment: In Vitro Antibacterial Activity (Table IV). It counts as cell-based. The settings on record: Tryptose Phosphate Broth pH 7.2 - 7.5, read-out: MIC (Minimum Inhibitory Concentration).
Excerpt: as §1, §2

The next assay has as its system E. Histolytica. In words: Oral activity against experimental cecal E. Histolytica infections in rats. In kind it is in vivo, male Royal Hart rats. The conditions noted are these: for A.D.I. (average degree of infection): scale 0 to 4, controls averaged 2.2. From the text: Table VII and Table VIII set forth in vivo test results which illustrate the antiprotozoal activity of Antibiotic G-418. The host for the tests were recently weaned male Royal Hart rats (3-4 weeks old) weighing about 50-70 g. The test procedure is a modification of one described by R. J. Schnitzer on pages 355-443 in Experimental Chemotherapy, Vol. 1, Academic Press, New York (1963).
*A.D.I. -- defined as the average degree of infection based upon gross
observations of pathological changes in the cecum and microscopic
observations of the number of amoebae found. These observations are
recorded on a scale of from zero to four, zero representing a
substantially normal cecum. Untreated but infected controls range from
about two to four. In the data set forth the controls averaged 2.2.

≈ marks a conversion by molar mass, not a printed value.

From patent US3997403A, “Antibiotic G-418 and the production thereof” (Schering Corporation, priority 1975, dated 1976) come the findings set out here.

For the molecule `CN[C@@H]1[C@@H](O)[C@@H](O[C@@H]2[C@@H](O)[C@H](O[C@H]3O[C@H]([C@@H](C)O)[C@@H](O)[C@H](O)[C@H]3N)[C@@H](N)C[C@H]2N)OC[C@]1(C)O` [Antibiotic G-418], in assay [1], the zone of inhibition (commonly the extent of the growth-free halo in a diffusion test) was found to be 16.5 ± 1.5 mm. Further, the MIC in the assay with Escherichia coli 894 is 7.5 µg/mL (≈ 15.1 µM); in assay [2] it was 17.5 µg/mL (≈ 35.2 µM); in assay [3], 7.5 µg/mL (≈ 15.1 µM); in assay [4] it was 0.8 µg/mL (≈ 1.61 µM); in the assay on Streptococcus sp. C, > 25 µg/mL. Also, the “Parasitological Cure Negative/Total” value in the assay on E. Histolytica (oral 3.5 mg/kg/day, 3 days) is recorded as 0/7; in the assay with E. Histolytica (oral 3.5 mg/kg/day, 6 days) it was 5/6; in the assay with E. Histolytica (oral 6.5 mg/kg/day, 1 day), 2/5; in the assay on E. Histolytica (oral 6.5 mg/kg/day, 3 days), 4/5; with E. Histolytica (oral 6.5 mg/kg/day, 6 days), 4/4; in the assay on E. Histolytica (oral 10 mg/kg/day, 1 day) it was 4/7. The “Parasitological Cure Negative/Total” value was 7/7 in the assay on E. Histolytica (oral 10 mg/kg/day, 3 days); 24/24 in the assay on E. Histolytica (oral 12.5 mg/kg/day, 6 days); 19/19 with E. Histolytica (oral 25 mg/kg/day, 6 days). Further, the “A.D.I. (average degree of infection)” value in the assay with E. Histolytica (oral 3.5 mg/kg/day, 3 days) was 1.7; in the assay with E. Histolytica (oral 3.5 mg/kg/day, 6 days) it was 0.2; in the assay on E. Histolytica (oral 6.5 mg/kg/day, 1 day) it was 1.0; with E. Histolytica (oral 6.5 mg/kg/day, 3 days) it was 0.4; in the assay on E. Histolytica (oral 6.5 mg/kg/day, 6 days), 0; in the assay with E. Histolytica (oral 10 mg/kg/day, 1 day), 0.7. Further, the “A.D.I. (average degree of infection)” value in the assay on E. Histolytica (oral 10 mg/kg/day, 3 days) was 0; in the assay on E. Histolytica (oral 12.5 mg/kg/day, 6 days) it was 0; with E. Histolytica (oral 25 mg/kg/day, 6 days) it was 0.
